Measured values reported in paper PMC5011342, “A high throughput drug screening assay to identify compounds that promote oligodendrocyte differentiation using acutely dissociated and purified oligodendrocyte precursor cells” (BMC Research Notes, 2016).
Like-named read-outs stand apart in the source and are kept apart here.

Columns and labels:
expanded OPCs = test: cells; settings: for viability at 0.1 µM / viability at 1 µM / viability at 10 µM: Rattus norvegicus, 72 h
Method in brief: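 Expanded OPCs seeded at 10,000 cells/well in differentiation media, then exposed to NCC library compounds at 10, 1 and 0.1 µM (quadruplicate, 0.1% DMSO) for three days. Viability read as alamarBlue fluorescence (560/590 nm) after 4 h at 37 °C; tunicamycin 5 ng/ml served as toxicity control.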

[1] = test system: acutely dissociated and purified rat OPCs; test: Acute OL differentiation assay (MBP expression/cell, immunofluorescent image quantification); assay type: cell-based; settings: for activation at 2 µM / activation at 10 µM / activation at 0.08 µM / activation at 0.4 µM: Rattus norvegicus; for activation at 0.08 µM: test compound at 0.08 uM, read-out: 0.08 uM (% Quet)
Method in brief: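 Oligodendrocyte precursor cells were enriched from P6-P7 Sprague–Dawley rat brains by immunopanning (RAN-2 and GalC depletion, O4 selection), plated at 5000 cells/well in serum-free, mitogen-free differentiation media on PDL/laminin 96-well view plates, centrifuged at 200×g, and pre-incubated 1–2 h before test compounds were added in quadruplicate. On DIV4, cells were fixed, stained for MBP and DAPI, imaged automatically, and MBP expression per cell was quantified.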

[2] = alamarBlue viability of expanded OPCs, compound at 0.1 µM, relative to DMSO control
[3] = alamarBlue viability of expanded OPCs, compound at 1 µM, relative to DMSO control
[4] = alamarBlue viability of expanded OPCs, compound at 10 µM, relative to DMSO control
[5] = test compound at 2 uM, NCC library screen, sheet "All OLga data", relative to quetiapine, read-out: 2 uM (% Quet)
[6] = test compound at 10 uM, NCC library screen, sheet "All OLga data", relative to quetiapine, read-out: 10 uM (% Quet)
[7] = NCC library screen, sheet "All OLga data", relative to quetiapine
[8] = read-out: 0.1 µM (% DMSO), alamarBlue viability, NCC library compound at 0.1 µM, sheet "All Tox data"
[9] = read-out: 1 µM (% DMSO), alamarBlue viability, NCC library compound at 1 µM, sheet "All Tox data"
[10] = read-out: 10 µM (% DMSO), alamarBlue viability, NCC library compound at 10 µM, sheet "All Tox data"
[11] = 2 uM test compound, relative to quetiapine, sheet "All OLga data", read-out: OL differentiation, 2 uM (% Quet)
[12] = test compound at 0.4 uM, NCC library screen, sheet "All OLga data", relative to quetiapine, read-out: 0.4 uM (% Quet)
[13] = read-out: 0.1 µM (% DMSO), alamarBlue viability of expanded OPCs, compound at 0.1 µM, sheet All Tox data
[14] = read-out: 1 µM (% DMSO), alamarBlue viability of expanded OPCs, compound at 1 µM, sheet All Tox data
[15] = read-out: 10 µM (% DMSO), alamarBlue viability of expanded OPCs, compound at 10 µM, sheet All Tox data
[16] = 10 uM test compound, relative to quetiapine, sheet "All OLga data", read-out: OL differentiation, 10 uM (% Quet)

| SMILES | 0.1 µM (% DMSO) (expanded OPCs; [2]) | 1 µM (% DMSO) (expanded OPCs; [3]) | 10 µM (% DMSO) (expanded OPCs; [4]) | activation at 2 µM [1, 5] [%] | viability at 0.1 µM (expanded OPCs; [8]) [%] | viability at 1 µM (expanded OPCs; [9]) [%] | viability at 10 µM (expanded OPCs; [10]) [%] | activation at 0.4 µM [1, 12] [%] | other results |
| --- | --- | --- | --- | --- | --- | --- | --- | --- | --- |
| NS(=O)(=O)c1cc2c(cc1Cl)N=CNS2(=O)=O [Chlorothiazide] | 88.9 | 90.2 | 89.0 | -11.1 |  |  |  |  | activation at 10 µM [1, 6]: -11.8% |
| Oc1c(Cl)cc(Cl)c2cccnc12 [Chloroxine] | 24.3 | 10.2 | 8.9 |  |  |  |  |  | activation at 0.08 µM [1, 7]: -87.1% |
| CN(C)CCC(c1ccc(Cl)cc1)c1ccccn1 (centres unmarked) [Chlorpheniramine] |  |  |  | 7.6 | 86.5 | 77.7 | 46.7 | -6.7 | activation at 0.4 µM ([1]; 0.4 uM test compound, relative to quetiapine, sheet "All OLga data", read-out: OL differentiation, 0.4 uM (% Quet)): 8.7%; activation at 2 µM [1, 11]: 10.5% |
| CN(C)CCCN1c2ccccc2Sc2ccc(Cl)cc21 [Chlorpromazine] |  |  |  |  | 67.2 | 38.2 | 10.5 | -44.8 | activation at 0.08 µM [1, 7]: 7.4% |
| CCCNC(=O)NS(=O)(=O)c1ccc(Cl)cc1 [Chlorpropamide] | 185.9 | 197.2 | 208.8 | -27.8 |  |  |  |  | activation at 10 µM [1, 6]: -19% |
| NS(=O)(=O)c1cc(C2(O)NC(=O)c3ccccc32)ccc1Cl (centres unmarked) [Chlorthalidone] | 92.5 | 95.8 | 81.7 |  |  |  |  |  | activation at 2 µM ([1]; test compound at 2 uM, MBP expression relative to quetiapine, NCC library screen, sheet "All OLga data", read-out: 2 uM (% Quet)): -5.8%; activation at 10 µM ([1]; test compound at 10 uM, MBP expression relative to quetiapine, NCC library screen, sheet "All OLga data", read-out: 10 uM (% Quet)): -2% |
| CC1(C)C[C@@H]1C(=O)N/C(=C\CCCCSC[C@H](N)C(=O)O)C(=O)O [Cilastatin] |  |  |  |  |  |  |  |  | viability at 0.1 µM (expanded OPCs; read-out: 0.1 µM (% DMSO)): 96.8%; viability at 1 µM (expanded OPCs; read-out: 1 µM (% DMSO)): 95.5%; viability at 10 µM (expanded OPCs; read-out: 10 µM (% DMSO)): 89.5%; activation at 2 µM ([1]; read-out: OL differentiation, 2 uM (% Quet)): -1.9%; activation at 10 µM ([1]; read-out: OL differentiation, 10 uM (% Quet)): -4.3% |
| CN/C(=N/CCSCc1nc[nH]c1C)NC#N [Cimetidine] | 89.7 | 89.2 | 92.3 | 2.9 |  |  |  |  | activation at 10 µM [1, 6]: -11.1% |
| CN(C)CCCSc1ccccc1NC(=O)/C=C/c1ccccc1 [Cinanserin] |  |  |  |  |  |  |  |  | viability at 0.1 µM (expanded OPCs; [13]): 80.3%; viability at 1 µM (expanded OPCs; [14]): 84.3%; viability at 10 µM (expanded OPCs; [15]): 74.7%; activation at 2 µM [1, 11]: 64.2%; activation at 10 µM [1, 16]: 63.5% |
| COc1cc(N)c(Cl)cc1C(=O)NC1CCN(CCCOc2ccc(F)cc2)CC1OC (centres unmarked) [Cisapride] |  |  |  |  |  |  |  |  | viability at 0.1 µM (expanded OPCs; [13]): 80.4%; viability at 1 µM (expanded OPCs; [14]): 89%; viability at 10 µM (expanded OPCs; [15]): 73.6%; activation at 2 µM [1, 11]: 11.3%; activation at 10 µM [1, 16]: 25.5% |
| Nc1nc(Cl)nc2c1ncn2[C@H]1C[C@H](O)[C@@H](CO)O1 [Cladribine] |  |  |  |  | 41.2 | 22.4 | 10.4 | -22.9 | activation at 0.08 µM [1, 7]: -6.7% |
| NC(=NCc1ccc(Cl)cc1)SCCCc1cnc[nH]1 [Clobenpropit] |  |  |  | -2.7 | 120 | 107 | 39.3 | 7.2 |  |
| C[C@H]1C[C@H]2[C@@H]3CCC4=CC(=O)C=C[C@]4(C)[C@@]3(F)[C@@H](O)C[C@]2(C)[C@@]1(O)C(=O)CCl [Clobetasol] |  |  |  |  |  |  |  |  | 0.1 µM (% DMSO) (expanded OPCs; alamarBlue viability, NCC library compound at 0.1 µM, sheet "All Tox data"): 124.1 % DMSO; 1 µM (% DMSO) (expanded OPCs; alamarBlue viability, NCC library compound at 1 µM, sheet "All Tox data"): 133.0 % DMSO; 10 µM (% DMSO) (expanded OPCs; alamarBlue viability, NCC library compound at 10 µM, sheet "All Tox data"): 121.5 % DMSO; 2 uM (% Quet) ([1]; test compound at 2 uM, NCC library screen, sheet "All OLga data", relative to quetiapine): -30.9 % Quet; 10 uM (% Quet) ([1]; test compound at 10 uM, NCC library screen, sheet "All OLga data", relative to quetiapine): -99.6 % Quet |
| CC(C)/N=c1\cc2n(-c3ccc(Cl)cc3)c3ccccc3nc-2cc1Nc1ccc(Cl)cc1 [Clofazimine] |  |  |  |  | 89.9 | 45.9 | 19 | -57.8 | activation at 0.08 µM [1, 7]: 0.25% |
